Data set [1] can be described thus: Plasma exposure of LD and CD after SC infusion, oral IR tablet, and SC + oral coadministration (crossover, Example 1). The data set is classed as in vivo, healthy subjects (human). The conditions noted are these: for 1. Treatment A AUC (0-8) × 0.853* / AUC(0-t): human; for 1. Treatment A AUC (0-8) × 0.853*: sc. The source says:
A test was run in order to assess the plasma exposure of levodopa (LD) following the coadministration of LD and carbidopa (CD) in both subcutaneous (SC) and oral administrations. Accordingly, results obtained from a combined SC+oral administration were compared to results obtained from SC administration alone and from oral administration alone. An additive plasma exposure and PK profile was expected, i.e., it was expected that the SC+oral coadministration would provide results equal to the additive results of the SC and oral administrations, when each was administered separately.
16 healthy subjects (18-50 years) were treated in a crossover manner, i.e., sequentially, with a washout period of 6 days between the following two treatments:
Treatment A: A total dose of 180/22.5 mg LD/CD (formulation A) was administered by SC infusion over the course of 8 hours, at a steady infusion rate.
Treatment B: An immediate release (IR) tablet of 100/25 mg LD/CD was administered orally at time 0 h.
Following a 32 hour washout period, the same 16 healthy subjects were administered with LC/CD both orally and subcutaneously according to the following treatment:
Treatment C: A dose of 153.6/19.2 LD/CD (formulation A) was administered by SC infusion over the course of 8 hours, at a steady infusion rate, combined with a single co-administration of an oral IR LD/CD 100/25 mg tablet, 4 hours after the initiation of the infusion. Total LD/CD dose: 253.6/44.2 mg.
Blood samples were collected at the following time points:
Treatment A: 0 (prior to treatment initiation), 0.5 h, 1 h, 2 h, 3 h, 4 h, 5 h, 5.5 h, 6 h, 7 h, 8 h (prior to the end of the infusion).
Treatment B: 0 (prior to treatment initiation), 0.5 h, 1 h, 2 h, 3 h, 4 h.
The normalized AUC0-8 of LD and CD of Treatment C, resulting from the combined SC and oral treatment, as described above, was calculated and compared to the sum of the normalized LD and CD AUCs obtained from Treatment A (AUC0-8 resulting from 8 h SC infusion) and Treatment B (AUC0-4 resulting from one IR oral tablet).

A short description of data set [2]: Dose proportionality of SC LD/CD, clinical trial ND0612-001 (Example 2a). The data set is classed as in vivo, healthy male subjects (human). The note with it: 24 hour continuous SC infusion of LD (6% w/w)/CD (1.4% w/w) at 80, 120, 160, 200, 240 μl/h. As for the experimental part:
Subjects were administered with a composition comprising LD (6% w/w)/CD (1.4% w/w) by way of a 24 hour continuous infusion at varying infusion rates: • Group 1: 80 μl/h • Group 2: 120 μl/h • Group 3: 160 μl/h • Group 4: 200 μl/h • Group 5: 240 μl/h Several PK parameters were derived for both LD and CD in the dose proportionality assessment, including AUC (hr*ng/mL), Cmax (ng/mL), C15 (ng/mL), and C24 (ng/mL).

A further data set can be described thus: in vivo. The note with it: for AUC: female, pig, in vivo, sc, 600 mg, SC treatment AUC (G1) Actual. As for the experimental part: The objective of this study was to determine the pharmacokinetics (PK) of levodopa (LD) in domestic pigs following continuous subcutaneous (SC) infusion of a levodopa prodrug, exemplified using LD-Tyr, administered concomitantly with oral Levodopa.
Table 3 provides the LD-Tyr formulation tested in this study: […]
The study consisted of 3 dosing sessions in which 5 female pigs (Swine/Landrace×large White, ˜40-50 kg each) were treated with the LD-Tyr solution of Table 3 and/or Sinemet IR oral tablets (CD/LD 25/100 mg tablet) in a cross-over design with up to 4-day washout period between dosing sessions, as detailed in the following tables:
As presented in Tables 4 and 5 above, the study included the following three test groups: • G1—received only SC LD-Tyr (600 mg total daily dose); • G2—received only oral LD (300 mg total daily dose); and • G3—received both SC LD-Tyr (600 mg total daily dose) and oral LD (200 mg total daily dose). Pharmacokinetics Blood Collection
Blood samples for the determination of LD-Tyr (in groups 1 and 3), as well as LD and CD plasma levels (in all groups) were collected from the pigs at the following timepoints: • 0 (pre-dose), 30 min, 1 h, 2 h, 3 h, 4 h, 4.5 h, 5 h, 6 h, 7 h, 8 h, 8.5 h, 9 h, 10 h, 11 h, 13 h, 15 h 18 h following treatment initiation. In case of pump occlusion (groups 1 and 3) resulting in infusion cessation, no further blood samples will be collected. Tablets were administrated before blood collection (time 0, 4 and 8 h). Bioanalysis
Plasma samples were analyzed for concentration of LD-Tyr (groups 1 and 3), as well as LD and CD (for all groups) using a qualified LC-MS/MS analytical method.
PK parameters (at least Cmax, tmax, t1/2, AUC) for LD-Tyr, LD and CD were calculated by noncompartmental methods using appropriate software (e.g. Phoenix® WinNonlin®). Individual and mean was calculated for quantitative parameters.
The LD exposure obtained from the SC infusion is considered to be the baseline.

Data set [3] in a line: Plasma carbidopa Cmax after SC administration of several carbidopa doses, clinical trial ND0612-005a and ND0612-005b (Example 2b). The data set is classed as in vivo, subjects (human). The note with it: SC over 24 hours; 60 mg/ml levodopa with 7.5, 6 or 4 mg/ml carbidopa; 17.9, 26.9, 33.6 mg/24 h carbidopa. The protocol: In a separate clinical trial (ND0612-005a and ND0612-005b, open label design studies), the plasma carbidopa levels were tested in view of the subcutaneous administration of several carbidopa doses. Three formulations, comprising 60 mg/ml levodopa and (a) 7.5 mg/ml; (b) 6 mg/ml; or 4 mg/ml of carbidopa, were administered to three groups of subjects over the course of 24 hours, providing a total of 17.9 mg/24 h carbidopa to each subject in the first group, 26.9 mg/24 h carbidopa to each subject in the second group and 33.6 mg/24 h carbidopa to each subject in the third group.

Molecules are shown by their SMILES. Read-outs that look alike come from different tables or passages of the source.

The text below walks through data of patent publication US11844754B2, “Methods for treatment of Parkinson's disease” (NeuroDerm, Ltd., priority 2020, dated 2023).

The AUC is the area under the concentration-time curve, a measure of exposure. Regarding `N[C@@H](Cc1ccc(O)c(O)c1)C(=O)O` [LD, L-3,4-dihydroxyphenylalanine], the “1. Treatment A AUC (0-8) × 0.853*” value in data set [1] (in vivo) is reported as 2412. For the same compound, the AUC(0-t) in data set [1] (in vivo, plasma LD, formulation A 153.6/19.2 LD/CD SC infusion over 8 h + oral IR LD/CD 100/25 mg tablet at 4 h, individual subjects, read-out: 4. Treatment C AUC (0-8) [Observed]) came to 4770 ng·h/mL; in data set [1] (in vivo, plasma LD, formulation A 180/22.5 mg LD/CD SC infusion over 8 h, AUC multiplied by 0.853 to equal SC dose of Treatment C, individual subjects, read-out: 1. Treatment A AUC (0-8) × 0.853*), 2310 ng·h/mL; in data set [1] (in vivo, plasma LD, oral IR tablet 100/25 mg LD/CD at 0 h, individual subjects, read-out: 2. Treatment B AUC (0-4)), 1420 ng·h/mL; in data set [1] (plasma LD, formulation A 180/22.5 mg LD/CD SC infusion over 8 h, AUC multiplied by 0.853 to equal SC dose of Treatment C, individual subjects, read-out: 1. Treatment A AUC (0-8) × 0.853*), 3090 ng·h/mL. The “Observed (C) vs. Additive Ratio” value in data set [1] (in vivo) is given as “higher than expected”. The “3. Combined 1 + 2 [Estimated]” value in data set [1] (plasma LD, sum of normalized Treatment A and Treatment B AUCs, individual subjects) was 3087. The “dose proportionality of PK parameters (AUC, Cmax, C15, C24)” value in data set [2] is “demonstrated dose proportionality”. For the same compound, the exposure (AUC) in the data set “in vivo” (Landrace x large White) amounted to 17600 ng·h/mL; in the data set “in vivo” (plasma LD AUC, pigs, SC LD-Tyr/CD 600/26 mg over 8 hrs only, individual animals), 18000 ng·h/mL. Besides, the “increase of LD plasma exposure by oral add-ons on top of SC administration, versus predicted (average)” value in the data set “in vivo” (pigs, SC LD-Tyr/CD + oral LD/CD) is “over 50%”.

In the case of `C[C@@](Cc1ccc(O)c(O)c1)(NN)C(=O)O` [CD, carbidopa], the “1. Treatment A AUC (0-8) × 0.853*” value in data set [1] (in vivo) was determined as 900. Moreover, the AUC(0-t) in data set [1] (in vivo, plasma CD, formulation A 153.6/19.2 LD/CD SC infusion over 8 h + oral IR LD/CD 100/25 mg tablet at 4 h, individual subjects, read-out: 4. Treatment C AUC (0-8) [Observed]) was found to be 1050 ng·h/mL; in data set [1] (in vivo, plasma CD, formulation A 180/22.5 mg LD/CD SC infusion over 8 h, AUC multiplied by 0.853, individual subjects, read-out: 1. Treatment A AUC (0-8) × 0.853*), 942 ng·h/mL; in data set [1] (in vivo, plasma CD, oral IR tablet 100/25 mg LD/CD at 0 h, individual subjects, read-out: 2. Treatment B AUC (0-4)), 322 ng·h/mL. In data set [1] (in vivo), the “Observed (C) vs. Additive Ratio” value is reported as “lower than expected”. Further, the “dose proportionality of PK parameters (AUC, Cmax, C15, C24)” value in data set [2] is “demonstrated dose proportionality”. Further, in data set [3], the “dose proportionality of carbidopa Cmax” value was “clear dose proportionality”.
